According to patent US20030187056A1, “Live cell procedures to identify to identify compounds modulating intracellular distribution of phosphodiesterase( pde) enzymes” (priority 2000, published 2003):
Read-outs that look alike come from different tables or passages of the source.

Assays:
PDE4 [1] = details: cited from earlier work
PDE4 [2] = tested on: T1, PDE4; details: Saldou et al., 1998; read-out: IC50 against PDE4; cited from earlier work
T1 construct: other: Saldou et al., 1998; Such an enzyme preparation may be obtained from cells transfected with and expressing the PDE4 enzyme chosen

PDE3 = PDE3 inhibition (literature values, PDE3/PDE4 specificity); type: biochemical; details: measure of specificity
Description: These compounds are termed specific to PDE4, since they inhibit other PDEs either weakly or not at all. The inverse ratio between IC50 of a compound to PDE4s versus its inhibition of other cAMP-degrading PDEs, such as PDE3s is often used as a measure of specificity.

PDE4A probes = assay: Redistribution of the PDE4A probes (summary); type: cell-based; details: compound alone
[3] = human, in vivo; cited from earlier work
HSPDE4A4-EGFP = biological target: T2, HSPDE4A4-EGFP (Homo sapiens, UniProt P27815); assay: Dispersal of preformed Rolipram-induced spots, HSPDE4A4-EGFP CHO cells; type: cell-based; details: yes/no
T2 construct: expressed in transfected cells
T2 sequence (P27815 whole entry): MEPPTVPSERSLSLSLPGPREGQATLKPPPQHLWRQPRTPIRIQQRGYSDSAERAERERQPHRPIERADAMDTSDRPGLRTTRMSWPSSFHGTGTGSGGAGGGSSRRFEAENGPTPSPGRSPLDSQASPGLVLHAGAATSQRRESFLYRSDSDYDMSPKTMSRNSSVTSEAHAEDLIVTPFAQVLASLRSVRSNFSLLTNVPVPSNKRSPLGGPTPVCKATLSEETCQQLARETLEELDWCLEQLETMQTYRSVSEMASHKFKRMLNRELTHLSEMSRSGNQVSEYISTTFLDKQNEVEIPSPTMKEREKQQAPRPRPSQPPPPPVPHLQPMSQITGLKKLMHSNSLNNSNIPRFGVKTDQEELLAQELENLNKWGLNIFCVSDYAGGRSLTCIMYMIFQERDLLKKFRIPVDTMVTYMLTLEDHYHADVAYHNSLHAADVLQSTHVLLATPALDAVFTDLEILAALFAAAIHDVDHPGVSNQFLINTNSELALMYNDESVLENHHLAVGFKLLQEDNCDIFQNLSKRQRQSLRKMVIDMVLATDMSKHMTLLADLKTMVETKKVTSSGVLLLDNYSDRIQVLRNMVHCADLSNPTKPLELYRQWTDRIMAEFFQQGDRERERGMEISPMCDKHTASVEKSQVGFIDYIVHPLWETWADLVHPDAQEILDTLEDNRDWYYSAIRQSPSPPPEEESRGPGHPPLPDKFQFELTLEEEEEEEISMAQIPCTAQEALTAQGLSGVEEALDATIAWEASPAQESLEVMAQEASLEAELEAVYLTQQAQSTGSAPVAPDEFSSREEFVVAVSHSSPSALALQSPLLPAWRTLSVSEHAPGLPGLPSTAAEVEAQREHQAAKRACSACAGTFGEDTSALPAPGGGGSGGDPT

HSPDE4A4catD-EGFP = biological target: T3, HSPDE4A4catD-EGFP (Homo sapiens, UniProt P27815+Q08499); type: cell-based
T3 construct: the 3′-end catalytic region of HSPDE4D isoforms (nucleotides 700-2019 of HSPDE4D3 cDNA); HSPDE4A4 N-terminal fragment (nucleotides 1-1023 of L20965); expressed in transfected cells
T3 sequence (P27815+Q08499 fused with the stated changes, form open): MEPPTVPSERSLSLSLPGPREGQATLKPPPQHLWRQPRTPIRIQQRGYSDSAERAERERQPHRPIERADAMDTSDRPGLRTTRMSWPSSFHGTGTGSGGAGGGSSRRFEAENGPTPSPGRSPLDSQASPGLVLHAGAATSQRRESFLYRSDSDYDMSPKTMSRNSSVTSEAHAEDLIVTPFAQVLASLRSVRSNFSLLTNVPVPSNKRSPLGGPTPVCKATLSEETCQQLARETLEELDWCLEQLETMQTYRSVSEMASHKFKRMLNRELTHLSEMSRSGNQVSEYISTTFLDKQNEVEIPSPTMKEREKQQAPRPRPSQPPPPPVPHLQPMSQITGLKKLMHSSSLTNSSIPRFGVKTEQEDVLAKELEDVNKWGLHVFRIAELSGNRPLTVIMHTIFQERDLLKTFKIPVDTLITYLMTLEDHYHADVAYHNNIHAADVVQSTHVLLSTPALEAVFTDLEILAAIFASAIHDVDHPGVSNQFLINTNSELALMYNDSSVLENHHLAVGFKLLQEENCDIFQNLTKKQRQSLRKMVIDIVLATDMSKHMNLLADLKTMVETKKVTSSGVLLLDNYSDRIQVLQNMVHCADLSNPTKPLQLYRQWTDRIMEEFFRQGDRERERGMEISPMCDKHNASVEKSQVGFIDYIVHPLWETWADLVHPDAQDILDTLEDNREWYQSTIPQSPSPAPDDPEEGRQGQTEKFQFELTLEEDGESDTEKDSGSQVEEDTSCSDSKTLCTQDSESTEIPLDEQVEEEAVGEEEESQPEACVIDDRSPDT
Description: Transiently transfected or stably transfected (non-clonal) cells are allowed to adhere to chambered coverglasses in HAM's F12 medium containing 10% FBS.

HSPDE4A1-EGFP = biological target: T4, HSPDE4A1-EGFP (Homo sapiens, UniProt P27815); assay: Spot dispersal in CHO cells transfected with HSPDE4A1-EGFP; type: cell-based
T4 construct: the ca. 1.95 kb coding region of HSPDE4A1 (GenBank Acc.no. U97584) is amplified; expressed in transfected cells
T4 sequence (P27815 1-647 isoform P27815-4): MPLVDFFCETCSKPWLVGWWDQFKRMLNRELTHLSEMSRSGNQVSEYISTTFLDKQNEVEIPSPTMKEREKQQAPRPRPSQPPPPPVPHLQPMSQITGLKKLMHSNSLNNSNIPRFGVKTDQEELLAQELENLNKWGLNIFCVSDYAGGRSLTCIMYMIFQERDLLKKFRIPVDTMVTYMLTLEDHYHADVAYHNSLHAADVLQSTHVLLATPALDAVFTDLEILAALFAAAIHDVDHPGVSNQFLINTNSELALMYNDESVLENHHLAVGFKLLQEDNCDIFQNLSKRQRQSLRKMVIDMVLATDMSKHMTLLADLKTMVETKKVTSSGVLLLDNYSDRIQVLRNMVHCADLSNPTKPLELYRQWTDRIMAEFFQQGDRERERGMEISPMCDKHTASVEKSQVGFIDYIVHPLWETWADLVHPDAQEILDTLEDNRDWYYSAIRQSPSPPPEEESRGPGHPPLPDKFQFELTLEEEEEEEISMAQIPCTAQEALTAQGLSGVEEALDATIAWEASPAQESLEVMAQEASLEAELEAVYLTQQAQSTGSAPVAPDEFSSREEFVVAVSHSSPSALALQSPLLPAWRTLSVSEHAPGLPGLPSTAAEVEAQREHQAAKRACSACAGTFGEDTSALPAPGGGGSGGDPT
Experimental: (§1) […] The cells are then fixed with 4% formalin buffer (pH7) for 1 hour, washed with PBS and stained with 1 μM Hoechst 33258 in PBS for 10 minutes at 25° C., then washed twice in PBS. Automated images are collected and analysed for the number of spots per cell as described in Example 2.
as §1

HSPDE4A4-H506N-EGFP = biological target: T5, HSPDE4A4-H506N-EGFP (Homo sapiens, UniProt P27815, H506N); assay: Spot formation in CHO cells transfected with HSPDE4A4-H506N-EGFP; type: cell-based; details: clonal CHO, 23.5 hours
T5 construct: expressed in transfected cells
T5 sequence (P27815 whole entry H506N): as the sequence (P27815 whole entry) above, with H506N counted along it
Experimental: (§2) The cells are then fixed with 4% formaldehyde buffer (pH7) for 1 hour, washed with PBS and stained with 1 μM Hoechst 33258 in PBS for 10 minutes at 25° C., then washed twice in PBS. Automated images are collected and analysed for the number of spots per cell as described in Example 2.
as §2, with “Cells are grown in HAM's F12 medium plus 10% FBS plus various concentrations of inhibitors for 23.5 hours. The” for “The”

SMILES: O=c1c2cccnc2n(-c2cccc([N+](=O)[O-])c2)c(=O)n1Cc1ccncc1 [RS25344]
- IC50 (PDE4 [1]; literature values quoted in Example 5 (Saldou 1998; Ahluwalia 1982; Rubin 1991), read-out: IC50 against PDE4): 0.28 nM
- Inhibition of PDE4 catalytic activity (PDE4 [1]; yes/no): yes
- IC50 (PDE4 [2]): 0.28 nM
- (IC50 PDE3)/(IC50 PDE4) (PDE3): 1,170,000
- redistribution of the PDE4A probes (PDE4A probes): indistinguishable from those induced by Rolipram treatment
- Clinical effect [3]: anti-
- Emesis [3]: yes
- Removal of Rolipram-induced PDE4A4-spots (HSPDE4A4-EGFP): no
- spot formation (in words) (HSPDE4A4catD-EGFP; 1 μM RS25344 32 hours, stably transfected, 10 μM Rolipram 26 hours, transiently transfected): Many cells in this stable population respond by forming pairs of bright spots
- time until spots begin to be visible (HSPDE4A4catD-EGFP; after addition of 1 μM RS25344): about 6 hours
- dispersal of PDE4A1 spots (in words) (HSPDE4A1-EGFP; Rolipram 2 micromolar 2 hours, others over the ranges tested): reduce PDE4A1 spot numbers
- EC50 (HSPDE4A1-EGFP; clonal CHO, 23.5 hours, estimated): 5 nM
- Removal of PDE4A1 spots (HSPDE4A1-EGFP; yes/no): yes
- EC50 (HSPDE4A4-H506N-EGFP): 125 nM
